Experimental data from patent US20160122758A1, “AGENTS FOR DOWNREGULATION OF THE ACTIVITY AND/OR AMOUNT OF BCL-XL AND/OR BCL-W” (YEDA RESEARCH AND DEVELOPMENT CO. LTD., priority 2013, published 2016).
Residues, ends and D or L forms follow the SMILES beside them. *: point of attachment. Cbz = O=C(OCc1ccccc1)*; CH2F = FC*

What was measured:
[1] = test system: Etoposide treated senescent IMR-90 cells; test: Viability assay after siRNA transfection of Etoposide treated senescent IMR-90 cells; type: cell-based, human; details: 10 μM ABT-199 for 24 hours, three days post siRNA transfection
Protocol: (§1) Human primary fibroblasts (IMR-90, BJ) were obtained from ATCC MEFs were prepared from day 13.5 embryos. All cultures were maintained in DMEM supplemented with 10% fetal bovine serum (Hyclone). Senescence was induced by treatment with Etoposide ([…], Sigma), or the introduction of oncogenic H-ras^v12 using infections into IMR-90 cells (as described by Narita, 2003).
(§2) Growing and senescent cells were plated in 12-well plates at 7.5×10^4 cells per well. The following day, cells were treated with DMSO control, ABT-737 (Selleckchem, USA) or ABT-199 (ChemieTek, USA) and cell viability was analyzed 24 hours thereafter. 300 μl of PrestoBlue Reagent (Invitrogen, USA) were added to each well, and plates were incubated for 20 minutes at 37 C. 100 μl samples were taken in duplicates to a 96 well plate and read at an OD of 540 nm using a Tecan plate reader (Infinite® M200). A three-hour pre incubation with 100 μM z-VAD-fmk (Santa Cruz, USA) was performed prior to the addition of ABT-737 where indicated.
(§3) ON-TARGETplus SMARTpool small-interfering RNAs targeting p21, Bcl-2, Bcl-w, Bcl-xL and the nontargeting pool siRNAs (control) were transfected into cells with the Dharmafect 1 reagent (all from Dharmacon, Lafayette, Colo., USA). siRNAs were washed away 24 hours post transfection and viability was analyzed four days thereafter as described above.

[2] = test system: senescent IMR-90 or MEF cells; test: Viability assay, ABT-199 alone on senescent IMR-90 or MEF cells; type: cell-based, human, mouse; details: ABT-199 for 24 hours
Protocol: as §1, §2

senescent IMR-90 cells = test: Viability assay, ABT-737 with or without z-VAD-fmk on IMR-90 cells; type: cell-based, human
Protocol: as §1, §2
Members of the Bcl-2 family negatively regulate apoptotic pathway (Azmi et al., 2011; Cory et al., 2003; Reed, 2008). To determine whether ABT-737 kills senescent cells via the apoptotic pathway, DNA damage induced senescent IMR-90 cells, oncogenic H-Ras^v12 induced senescent cells and control growing cells were treated with ABT-737 alone or in combination with pan-caspase inhibitor z-VAD-fmk. […]

[3] = test system: senescent human (IMR-90) and mouse (MEF) fibroblasts; test: Viability assay, ABT-737 on senescent and control IMR-90 and MEF fibroblasts; type: cell-based; details: ABT-737 for 24 hours
Protocol: as §1, §2
To further test the hypothesis that an increase in the levels of anti-apoptotic proteins Bcl-w and Bcl-xL could account for the apoptotic resistance of senescent cells by an independent approach, cells were treated with the pharmacological inhibitor of the Bcl-2 family of proteins, ABT-737 (Chauhan et al., 2007). […]

cleaved caspase-3 = test: Immunoblot for cleaved caspase-3 in IMR-90 cells treated with ABT-737 with or without z-VAD-fmk; type: cell-based, human
Protocol: Cells were lysed in RIPA buffer. Equal amounts of protein were separated on 12% SDS-polyacrylamide gels and transferred to PVDF membranes. Detection was performed using the following antibodies: anti-Rb (9313), anti-cleaved parp (9541), anti-cleaved caspase-3 (9661), anti-phospho-p53 (9284), anti-mouse-p53 (2524), anti-phospho-NF-κB (3033), anti-Bcl-2 (2870), anti-Bcl-w (2724) and anti-Bcl-xL (2764) were purchased from Cell Signaling Technology. Anti-human p53 (DO1 and PAb1801). Anti-p16 (sc-759), anti-mouse-p21 (sc-397), anti-NFκB p65 (sc-372) and anti-α-Tubulin (sc-9104) were obtained from Santa Cruz Biotechnology. Anti-human-p21 (556431) was obtained from BD Pharmingen, Anti-Mcl-1 (1239-1) was obtained from Epitomics.
as §2, with “indicated. […]” for “indicated.”

[4] = test system: Etoposide treated BJ cells; test: Viability assay after siRNA transfection, senescent BJ cells; type: cell-based, human; details: Etoposide treated BJ cells with sip21; z-VAD-fmk four days with daily replenishment
Protocol: as §1, §2
as §3, with “above. […]” for “above.”

CC1(C)CCC(CN2CCN(c3ccc(C(=O)NS(=O)(=O)c4ccc(NCC5CCOCC5)c([N+](=O)[O-])c4)c(Oc4cnc5[nH]ccc5c4)c3)CC2)=C(c2ccc(Cl)cc2)C1 [ABT-199]
additive effect of Bcl-2 inhibition on top of Bcl-w and Bcl-xL knockdown on senescent cell viability [1]: statistically significant, but minor additive effect
effect on viability of oncogenic H-ras^v12 induced senescent IMR-90 cells [2]: minor decrease in cell viability
effect on viability of senescent cells, Bcl-2 inhibition alone ([2]; IMR-90 or MEF senescent cells): almost no effect

CN(C)CC[C@H](CSc1ccccc1)Nc1ccc(S(=O)(=O)NC(=O)c2ccc(N3CCN(Cc4ccccc4-c4ccc(Cl)cc4)CC3)cc2)cc1[N+](=O)[O-] [ABT-737]
death of senescent cells (senescent IMR-90 cells; ABT-737 alone, 24 hours, DNA damage or H-Ras^v12 induced senescent IMR-90): induced death
reduction of viability of senescent cells ([3]; Etoposide or H-Ras^V12 induced senescent IMR-90 and MEF): 50%
effect on viability of control cells ([3]; growing, vehicle treated or vector transduced cells): minor effect
caspase-3 cleavage (cleaved caspase-3; senescent IMR-90 cells treated with ABT-737): caspase-3 cleavage

COC(=O)C[C@H](NC(=O)[C@H](C)NC(=O)[C@@H](NC(=O)OCc1ccccc1)C(C)C)C(=O)CF [z-VAD-fmk] (Cbz-Val-Ala-Asp(OMe)-CH2F)
death of senescent cells following ABT-737 treatment, in presence of pan-caspase inhibitor (senescent IMR-90 cells; 100 μM z-VAD-fmk three-hour pre incubation, then ABT-737): prevented death
rescue of cell death caused by p21 knockdown [4]: 20%
caspase-3 cleavage after addition of z-VAD-fmk to ABT-737 (cleaved caspase-3; senescent IMR-90 cells, ABT-737 plus z-VAD-fmk): abolished this cleavage
